Test results as given in patent US20070032477A1, “Pteridine derivatives useful for making pharmaceutical compositions” (priority 2003, published 2007).
Where a name gives a salt, the structure may show the parent alone. Values belong to the compound of their own block, whether it stands above or below them.

Legend:
[1] = system: mixed lymphocyte reaction (PBMC with allogeneic PBMC or Eppstein-Barr Virus-transformed human B cells as stimulator cells); experiment: Mixed lymphocyte reaction (MLR) assay; format: cell-based; details: lowest concentration giving 50% suppression of the MLR; [3H]-thymidine
[2] = Plasma levels after oral administration in healthy mice; format: in vivo, C57BL/6 mice; details: 20 mg/kg once a day
Description: Each group of 6 mice received the indicated dose at time point 0 and were bled at 1, 3 and 5 hours after compound administration. Quantification was performed using a calibration curve of known compound concentrations spiked in control serum.
The plasma levels of the tested compound (example 176) was evaluated in C57BL/6 mice 8-10 weeks old Harlan, weighing 18.6-22.0 g after oral administration of 20, 10, 5 and 1 mg/kg, respectively (n=6 per dose). The tested compound (example 176) was dissolved in water to the appropriate concentration in order to deliver a constant gavage volume of 10 μl/g of body weight. Blood was collected by eye bleeding with heparinized capillaries at 1, 3, and 5 hours after dosing from each animal. The plasma fraction was immediately separated by centrifugation for 2 minutes at 12,000 g and stored at −80° C. until analysis. Each plasma sample was spiked with internal standard followed by the addition of 4 volumes of methanol. The samples were kept for 30 minutes on ice prior to centrifugation (10 minutes at 12,000 g) in order to remove precipitated proteins. The supernatant was analyzed for the presence of the tested compound (example 176), using LC/MS/MS. As standard for the bio-analysis, the tested compound (example 176) was diluted stepwise; each dilution was added to control plasma; additionally spiked with internal standard, giving rise to standard curves from 200 to 40,000 nM.

[3] = system: production of TNF-α by PBMC in response to stimulation by LPS; experiment: TNF-α assay; format: cell-based, human; details: LPS 1 μg/ml, 72 hours, sandwich ELISA
Summary of the method: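 Cells were LPS-stimulated (1 μg/ml final) peripheral blood mononuclear cells at 10^6/ml, exposed 72 h at 37 °C to 0.1, 1 or 10 μM test compound.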

[4] = Mixed lymphocyte reaction (MLR) assay; format: cell-based, human; details: Homo sapiens, Lymphocyte; lowest concentration giving 50% suppression of the MLR; [3H]-thymidine
[5] = system: production of IL-1 β by PBMC in response to stimulation by LPS; experiment: IL-1 β assay; format: cell-based, human; details: LPS 1 μg/ml, 72 hours, sandwich ELISA
Description: Peripheral blood mononuclear cells (herein referred as PBMC), in response to stimulation by lipopolysaccharide (LPS), a gram-negative bacterial endotoxin, produce various […], in particular human IL-1 β. Inhibition of the activation of PBMC can therefore be measured by the level of suppression of the production of IL-1 β by PBMC in response to stimulation by LPS.
Such inhibition measurement was performed as follows: PBMC were isolated from heparinized peripheral blood by density gradient centrifugation over Lymphoprep (commercially available from Nycomed, Norway). LPS was then added to the PMBC suspension in complete medium (10^6 cells/ml) at a final concentration of 1 μg/ml. The pteridine derivative to be tested was added at different concentrations (0.1 μM, 1 μM and 10 μM) and the cells were incubated at 37° C. for 72 hours in 5% CO2. The supernatants were collected, then IL-1 β concentrations were measured with an anti-IL-1 β antibody in a sandwich ELISA. The calorimetric reading of the ELISA was measured by a Multiskan RC plate reader (commercially available from ThermoLabsystems, Finland) at 450 nm (reference wavelength: 690 nm). Data analysis was performed with Ascent software 2.6. (also from ThermoLabsystems, Finland): a standard curve (recombinant human IL-1 β) was drawn and the amount (pg/ml) of each sample on the standard curve was determined.
The % suppression of human IL-1 β by the pteridine derivatives (drugs) of this invention was calculated using the formula: [formula]

SMILES: CCCCCC(=O)N1CCN(c2nc(N)nc3ncc(-c4ccc(OC)c(OC)c4)nc23)CC1 [Example 10, 2-amino-4-[(N-hexanoyl)-piperazin-1-yl]-6-(3,4-dimethoxyphenyl)pteridine]
IC50 [1]: 100 nM | serum concentrations versus in vitro IC50 for IL-1β production or T cell activation [2]: insufficient to inhibit IL-1β production or T cell activation | IC50 [3]: 70 nM

IC50 [4]: 4700 nM
SMILES: COc1ccc(-c2cnc3nc(NCc4cccs4)nc(N)c3n2)cc1OC [Example 80, 2-(2-thienylmethylamino)-4-amino-6-(3,4-dimethoxyphenyl)pteridine]

IC50 [4]: 3200 nM
SMILES: COc1ccc(-c2cnc3nc(NCc4ccccc4)nc(N)c3n2)cc1OC [Example 82, 2-benzylamino-4-amino-6-(3,4-dimethoxyphenyl)pteridine]

IC50 [4]: 8400 nM
SMILES: COc1ccc(-c2cnc3nc(N4CCCCC4)nc(N)c3n2)cc1OC [Example 87, 4-amino-2-piperidino-6-(3,4-dimethoxyphenyl)pteridine]

IC50 [4]: 300 nM
SMILES: COc1ccc(-c2cnc3nc(N)nc(N4CCC(C(=O)CN5CCNCC5)C4)c3n2)cc1OC (stereo not shown) [Example 131, 2-amino-4-(4-[2-(piperazin-1-yl)-acetyl]-pyrrolidino)-6-(3,4-dimethoxy-phenyl)pteridine]
IC50 ([3]; Homo sapiens): 1900 nM

SMILES: COc1ccc(-c2cnc3nc(N)nc(N4CCN(Cc5cccc(C)c5)CC4)c3n2)cc1OC [Example 136, 2-amino-4-(1-(3-methyl-benzyl)piperazinyl)-6-(3,4-dimethoxyphenyl)pteridine]
IC50 [5]: 4700 nM | IC50 [1]: 1400 nM | IC50 [3]: 800 nM

SMILES: COc1ccc(-c2cnc3nc(N)nc(N4CCN(c5ncccn5)CC4)c3n2)cc1OC [Example 147, 2-amino-4-((2-pyrimidinyl)-piperazin-1-yl)-6-(3,4-dimethoxyphenyl)pteridine]
IC50 [5]: 4300 nM | IC50 [1]: 200 nM | IC50 [3]: 100 nM

SMILES: COc1ccc(-c2cnc3nc(N)nc(N4CCN(CCCc5ccccc5)CC4)c3n2)cc1OC [Example 149]
IC50 [5]: 4900 nM | IC50 [1]: 500 nM | IC50 [3]: 300 nM

SMILES: COc1ccc(-c2cnc3nc(N)nc(N4CCN(c5ccc(Cl)c(Cl)c5)CC4)c3n2)cc1OC [Example 150, 2-amino-4-((3,4-dichlorophenyl)-piperazin-1-yl)-6-(3,4-dimethoxyphenyl)pteridine]
IC50 [5]: 3500 nM | IC50 [1]: 1000 nM | IC50 [3]: 300 nM

SMILES: COc1ccc(-c2cnc3nc(N)nc(N4CCN(CCn5cccc5)CC4)c3n2)cc1OC [Example 153]
IC50 [5]: 2000 nM | IC50 [1]: 200 nM | IC50 [3]: 100 nM

SMILES: COc1ccc(-c2cnc3nc(N)nc(N4CCN(CCOc5ccccc5)CC4)c3n2)cc1OC [Example 154]
IC50 [5]: 2200 nM | IC50 [1]: 100 nM | IC50 [3]: 30 nM

SMILES: COc1ccc(-c2cnc3nc(N)nc(N4CCN(Cc5ccncc5)CC4)c3n2)cc1OC [Example 157]
IC50 [5]: 2300 nM | IC50 [1]: 500 nM | IC50 [3]: 300 nM

SMILES: COc1ccc(-c2cnc3nc(N)nc(N4CCN(CCc5ccccc5)CC4)c3n2)cc1OC [Example 159, 2-amino-4-(N-phenethylpiperazin-1-yl)-6-(3,4-dimethoxyphenyl)pteridine]
IC50 [5]: 5400 nM | IC50 [1]: 110 nM | IC50 [3]: 20 nM

SMILES: COc1ccc(N2CCN(c3nc(N)nc4ncc(-c5ccc(OC)c(OC)c5)nc34)CC2)cc1 [Example 161, 2-amino-4-((4-methoxyphenyl)-piperazin-1-yl)-6-(3,4-dimethoxyphenyl)pteridine]
IC50 [5]: 3200 nM | IC50 [1]: 400 nM | IC50 [3]: 60 nM

SMILES: COc1ccc(-c2cnc3nc(N)nc(N4CCN(c5ccc(Cl)cc5)CC4)c3n2)cc1OC [Example 162, 2-amino-4-((4-chlorophenyl)-piperazin-1-yl)-6-(3,4-dimethoxyphenyl)pteridine]
IC50 [5]: 3800 nM | IC50 [1]: 800 nM | IC50 [3]: 400 nM

IC50 [4]: 2300 nM
SMILES: COc1ccc(-c2cnc3nc(N)nc(N4CCN(CCC5OCCO5)CC4)c3n2)cc1OC [Example 164, 2-amino-6-(3,4-dimethoxyphenyl)-4-(4-(2-(1,3)-dioxolan-2-yl-ethyl)-piperazin-1-yl)pteridine]
IC50 ([3]; Homo sapiens): 200 nM

IC50 [4]: 2900 nM
SMILES: CCOCCN1CCN(c2nc(N)nc3ncc(-c4ccc(OC)c(OC)c4)nc23)CC1 [Example 165, 2-amino-6-(3,4-dimethoxyphenyl)-4-(4-(2-ethoxyethyl)-piperazin-1-yl)pteridine]
IC50 ([3]; Homo sapiens): 300 nM

SMILES: CCC(CC)N1CCN(c2nc(N)nc3ncc(-c4ccc(OC)c(OC)c4)nc23)CC1 [Example 166, 2-amino-6-(3,4-dimethoxyphenyl)-4-(pent-3-yl-piperazin-1-yl)pteridine]
IC50 [5]: 4400 nM | IC50 [1]: 5300 nM | IC50 [3]: 800 nM

SMILES: CCCCCN1CCN(c2nc(N)nc3ncc(-c4ccc(OC)c(OC)c4)nc23)CC1 [Example 167, 2-amino-6-(3,4-dimethoxyphenyl)-4-(1-pentyl-piperazin-1-yl)pteridine]
IC50 [5]: 3700 nM | IC50 [1]: 3800 nM | IC50 [3]: 300 nM

SMILES: COc1ccc(-c2cnc3nc(N)nc(N4CCN(c5ccc(F)cc5)CC4)c3n2)cc1OC [Example 172, 2-amino-6-(3,4-dimethoxyphenyl)-4-((4-fluorophenyl)-piperazin-1-yl)pteridine]
IC50 [5]: 5100 nM | IC50 [1]: 100 nM | IC50 [3]: 50 nM

SMILES: COc1ccc(-c2cnc3nc(N)nc(N4CCN(c5ccc(C)c(C)c5)CC4)c3n2)cc1OC [Example 174, 2-amino-6-(3,4-dimethoxyphenyl)-4-((3,4-dimethylphenyl)-piperazin-1-yl)pteridine]
IC50 [5]: 5000 nM | IC50 [1]: 500 nM | IC50 [3]: 110 nM

SMILES: COc1ccc(-c2cnc3nc(N)nc(N4CCN(c5nccs5)CC4)c3n2)cc1OC [Example 178]
IC50 [5]: 4000 nM | IC50 [1]: 1300 nM | IC50 [3]: 150 nM

IC50 [4]: 8200 nM
SMILES: CCCN(CCC)CCN1CCN(c2nc(N)nc3ncc(-c4ccc(OC)c(OC)c4)nc23)CC1 [Example 183, 2-amino-6-(3,4-dimethoxyphenyl)-4-(4-(2-dipropylaminoethyl)-piperazin-1-yl)pteridine trihydrochloride salt]
IC50 ([3]; Homo sapiens): 1200 nM

IC50 [4]: 7700 nM
SMILES: COc1ccc(-c2cnc3nc(N)nc(N4CCN(CCN5CCCCC5)CC4)c3n2)cc1OC [Example 184, 2-amino-6-(3,4-dimethoxyphenyl)-4-(4-(2-piperidin-1-yl-ethyl)-piperazin-1-yl)pteridine trihydrochloride salt]
IC50 ([3]; Homo sapiens): 700 nM

SMILES: COc1ccc(-c2cnc3nc(N)nc(N4CCN(CC(=O)Nc5nccs5)CC4)c3n2)cc1OC [Example 187, 2-amino-4-[2-(piperazin-1-yl)-acetic acid N-(2-thiazolyl)-amide]-6-(3,4-dimethoxyphenyl)pteridine]
IC50 [5]: 2400 nM | IC50 [1]: 100 nM | IC50 [3]: 60 nM
